Patent publication US20260217701A1, “SELECTIVE BET INHIBITORS AND USES THEREOF” (Tay Therapeutics Limited, priority 2022, published 2026)
“And” between values parts separate entries of the source, which are not always exact repeats. Identical values can stand only once.

Tests used:
[1] = UUO study: serum urea levels; assay type: in vivo; conditions: UUO rats
Source text: Tables 30A-30B and FIG. 27A depict serum urea levels in sham rats (black bar), UUO rats treated with vehicle (grey bar), and UUO rats treated with Compound A (white bar).

hydroxyproline = assay: Bleomycin IPF model: hydroxyproline content in lung lysates; assay type: in vivo, C57BI/6J mice; design: Hydroxyproline Levels, Mean: unit not given here
Method: Male C57BI/6J mice, aged 12 weeks with an approximate weight of 25-30 g were obtained from Jackson Laboratories (Bar Harbor, ME). Animals were acclimated for two weeks prior to study initiation, and were randomized into the experimental groups outlined in Table 32.
Intratracheal (IT) administration of Bleo or PBS control was conducted at the start of the study (Day 0). […] Animals were weighed on Day 0, and indexed boluses of PBS control (Group 1) or Bleo (Groups 2-6) were delivered by IT administration.
Following administration of Bleo, animals (n=10/group) were included in the study if they met the following guidelines on Day 7: (1) a predictable 5% loss in body weight, and (2) the presence of fibrotic pulmonary lesions, detected by micro-CT imaging. 10 animals from Group 1 additionally proceeded as controls. Animals that continued in the study on Day 7 received an oral gavage (OG) administration of PBS, Compound A (1 mg/kg, 3 mg/kg, 10 mg/kg), or Pirfenidone (300 mg/kg), as outlined in Table 31 in 25 μL boluses every other day (QOD), starting on Day 7. Compound A was formulated in 5% (v/v) DMSO/15% (v/v) PEG 400/80% (v/v) E-TPGS in purified water.
Animals were euthanized on Day 21 following Micro-CT imaging, and the right lung was collected for biochemical analysis, and the left lung was inflation-fixed for morphological assessments. A resection of the right lung was weighed and homogenized to determine total hydroxyproline levels by colorimetric assay, and the remaining lung lysate was saved for future analyses.

What does the source list for `Cn1cc(-c2ccccc2)c(-c2cn(C)c(=O)c3[nH]c(-c4cnn(C(F)(F)F)c4)cc23)cc1=O` [Compound A, 6-methyl-4-(1-methyl-2-oxo-5-phenyl-1,2-dihydropyridin-4-yl)-2-(1-(trifluoromethyl)-1H-pyrazol-4-yl)-1,6-dihydro-7H-pyrrolo[2,3-c]pyridin-7-one]?
Serum urea levels, difference between experimental groups ([1]; 10 mg/kg): No significant differences; Serum Urea (Mean + S.D.) ([1]; 10 mg/kg QD): 5.67 ± 0.71 mmol/L; Serum Urea ([1]; Compound A 10 mg/kg QD, individual animals, 10 mg/kg): 5.72 mmol/L and 5.03 mmol/L and 5.64 mmol/L and 6.28 mmol/L and 5.22 mmol/L and 4.77 mmol/L and 6.97 mmol/L and 5.71 mmol/L; Hydroxyproline Levels, Mean (hydroxyproline; Bleo + Compound A (1 mg/kg) OG QOD from D7): 0.05281; Hydroxyproline Levels, Mean (hydroxyproline; Bleo + Compound A (3 mg/kg) OG QOD from D7): 0.05418; Hydroxyproline Levels, Mean (hydroxyproline; Bleo + Compound A (10 mg/kg) OG QOD from D7): 0.04627; Hydroxyproline levels relative to Group 2 (hydroxyproline; Day 21, 1 mg/kg and 3 mg/kg): reduced levels of hydroxyproline; Hydroxyproline levels, lower than IPF control group (Bleo+Saline) (hydroxyproline; Day 21, 10 mg/kg): about 60.4%
